Test results reported in ChEMBL document CHEMBL1139829, “2-Benzenesulfonyl-8a-benzyl-hexahydro-2H-isoquinolin-6-ones as selective glucocorticoid receptor antagonists” (Bioorg Med Chem Lett, 2007).

What was measured:
Glucocorticoid receptor [1] = biological target: T1, Glucocorticoid receptor (Homo sapiens, UniProt P04150); assay: Displacement of [3H]dexamethasone from human glucocorticoid receptor expressed in recombinant baculovirus
T1 sequence (P04150 whole entry): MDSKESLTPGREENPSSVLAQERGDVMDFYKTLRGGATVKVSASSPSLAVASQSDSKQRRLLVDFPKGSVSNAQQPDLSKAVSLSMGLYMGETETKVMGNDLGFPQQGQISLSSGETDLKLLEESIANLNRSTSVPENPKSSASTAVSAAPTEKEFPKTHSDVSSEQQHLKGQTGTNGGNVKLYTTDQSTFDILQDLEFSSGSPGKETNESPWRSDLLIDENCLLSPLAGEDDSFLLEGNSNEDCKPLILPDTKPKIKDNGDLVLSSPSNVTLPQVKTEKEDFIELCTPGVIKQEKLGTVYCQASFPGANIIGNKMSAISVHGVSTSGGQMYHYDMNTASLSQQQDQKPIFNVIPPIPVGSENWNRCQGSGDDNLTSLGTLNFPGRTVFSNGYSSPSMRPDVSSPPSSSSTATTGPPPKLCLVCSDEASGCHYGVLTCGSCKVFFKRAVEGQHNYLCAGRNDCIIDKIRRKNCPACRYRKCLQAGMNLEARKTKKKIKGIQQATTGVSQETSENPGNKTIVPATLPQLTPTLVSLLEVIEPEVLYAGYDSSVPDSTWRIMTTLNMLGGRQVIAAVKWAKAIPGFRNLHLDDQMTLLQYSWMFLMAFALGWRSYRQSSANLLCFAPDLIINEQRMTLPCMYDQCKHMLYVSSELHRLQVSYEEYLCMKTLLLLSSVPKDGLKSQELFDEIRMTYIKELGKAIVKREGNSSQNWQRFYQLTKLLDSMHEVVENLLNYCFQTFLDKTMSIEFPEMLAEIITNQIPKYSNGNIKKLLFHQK

Glucocorticoid receptor [2] = biological target: T1, Glucocorticoid receptor; assay: Antagonist activity at human glucocorticoid receptor in SW1353 cells assessed as inhibition of dexamethasone-induced luciferase expression by MMTV5 reporter gene assay; type: functional, cell-based
Glucocorticoid receptor [3] = biological target: T1, Glucocorticoid receptor; assay: Binding affinity to glucocorticoid receptor in SW1353 cells by whole-cell binding assay; type: cell-based
CYP2C9 = CYP2C9 (Homo sapiens, UniProt P11712); assay: Inhibition of CYP2C9 at 1 uM; type: ADME
CYP2D6 = CYP2D6 (Homo sapiens, UniProt P10635); assay: Inhibition of CYP2D6 at 1 uM; type: ADME
CYP2C19 = CYP2C19 (Homo sapiens, UniProt P33261); assay: Inhibition of CYP2C19 at 1 uM; type: ADME
Sequence of CYP2C19 (P33261 whole entry): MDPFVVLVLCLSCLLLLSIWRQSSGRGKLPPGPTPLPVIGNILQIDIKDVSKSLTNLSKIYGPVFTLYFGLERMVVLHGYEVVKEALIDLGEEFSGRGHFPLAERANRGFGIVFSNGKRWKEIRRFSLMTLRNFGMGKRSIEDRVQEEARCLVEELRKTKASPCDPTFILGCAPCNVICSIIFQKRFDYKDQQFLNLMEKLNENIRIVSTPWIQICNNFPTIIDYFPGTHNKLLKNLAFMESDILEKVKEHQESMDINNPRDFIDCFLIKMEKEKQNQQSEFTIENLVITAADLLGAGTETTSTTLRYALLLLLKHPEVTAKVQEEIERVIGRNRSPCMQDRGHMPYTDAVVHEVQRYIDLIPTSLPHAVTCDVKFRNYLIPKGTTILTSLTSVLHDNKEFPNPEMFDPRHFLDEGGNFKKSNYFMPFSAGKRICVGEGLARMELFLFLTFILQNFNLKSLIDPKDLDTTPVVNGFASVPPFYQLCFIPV

Sequence of CYP2D6 (P10635 whole entry): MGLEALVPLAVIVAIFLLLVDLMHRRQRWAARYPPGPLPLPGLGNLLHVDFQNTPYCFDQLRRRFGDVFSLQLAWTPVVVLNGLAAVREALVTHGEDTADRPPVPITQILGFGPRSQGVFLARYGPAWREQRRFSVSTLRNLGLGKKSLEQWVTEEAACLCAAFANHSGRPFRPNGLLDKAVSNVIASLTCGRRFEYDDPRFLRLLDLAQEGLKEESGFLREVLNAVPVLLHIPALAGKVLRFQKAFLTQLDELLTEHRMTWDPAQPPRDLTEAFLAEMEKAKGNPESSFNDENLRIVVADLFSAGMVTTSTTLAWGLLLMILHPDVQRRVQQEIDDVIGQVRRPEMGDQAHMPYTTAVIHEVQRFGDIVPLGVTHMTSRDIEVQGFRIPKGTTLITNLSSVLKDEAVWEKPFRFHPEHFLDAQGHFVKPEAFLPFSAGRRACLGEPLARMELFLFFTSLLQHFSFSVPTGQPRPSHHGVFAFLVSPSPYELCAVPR
Sequence of CYP2C9 (P11712 whole entry): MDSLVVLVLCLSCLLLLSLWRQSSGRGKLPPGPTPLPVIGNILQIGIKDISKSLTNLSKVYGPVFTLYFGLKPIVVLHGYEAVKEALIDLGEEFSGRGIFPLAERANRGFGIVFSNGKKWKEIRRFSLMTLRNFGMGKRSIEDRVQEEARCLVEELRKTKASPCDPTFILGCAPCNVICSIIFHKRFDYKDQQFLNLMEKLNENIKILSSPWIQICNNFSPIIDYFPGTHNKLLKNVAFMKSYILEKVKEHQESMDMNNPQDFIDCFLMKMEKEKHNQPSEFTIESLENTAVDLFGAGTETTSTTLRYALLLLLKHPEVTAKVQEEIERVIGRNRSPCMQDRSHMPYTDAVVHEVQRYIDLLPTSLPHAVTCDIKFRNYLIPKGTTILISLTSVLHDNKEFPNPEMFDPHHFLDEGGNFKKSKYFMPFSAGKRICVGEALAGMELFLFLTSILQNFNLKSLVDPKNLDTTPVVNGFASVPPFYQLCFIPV

Ki (Glucocorticoid receptor [1])	SMILES	other results
76 nM	COc1cccc(CC23CCC(=O)C=C2CCN(S(=O)(=O)c2ccc(C(C)(C)C)cc2)C3)c1 (centres undefined)	
4 nM	COc1ccc(C[C@]23CCC(=O)C=C2CCN(S(=O)(=O)c2ccc(C(C)(C)C)cc2)C3)cc1	Ki (Glucocorticoid receptor [2]): 200 nM; Ki (Glucocorticoid receptor [3]): 352 nM
193 nM	O=C1C=C2CCN(S(=O)(=O)c3ccc(Cl)cc3)CC2(Cc2ccccc2)CC1 (racemic)	
196 nM	COc1cccc(S(=O)(=O)N2CCC3=CC(=O)CCC3(Cc3ccccc3)C2)c1 (racemic)	
> 10000 nM	CCCCC(=O)N1CCC2=CC(=O)CCC2(Cc2ccccc2)C1 (racemic)	
1300 nM	COc1ccc(S(=O)(=O)N2CCC3=CC(=O)CCC3(Cc3ccccc3)C2)cc1OC (racemic)	
45 nM	CC(C)(C)c1ccc(S(=O)(=O)N2CCC3=CC(=O)CCC3(Cc3ccc([N+](=O)[O-])cc3)C2)cc1 (racemic)	
1950 nM	CS(=O)(=O)Nc1ccccc1S(=O)(=O)N1CCC2=CC(=O)CCC2(Cc2ccccc2)C1 (racemic)	
> 5000 nM	COc1ccc(N2CCC3=CC(=O)CCC3(Cc3ccccc3)C2)cc1 (centres undefined)	
3000 nM	O=C1C=C2CCN(S(=O)(=O)c3cccc([N+](=O)[O-])c3)CC2(Cc2ccccc2)CC1 (racemic)	
1250 nM	O=C1C=C2CCN(S(=O)(=O)c3ccc([N+](=O)[O-])cc3)CC2(Cc2ccccc2)CC1 (racemic)	
1200 nM	O=C1C=C2CCN(S(=O)(=O)Nc3ccccc3)CC2(Cc2ccccc2)CC1 (racemic)	
65 nM	CC(C)(C)c1ccc(S(=O)(=O)N2CCC3=CC(=O)CCC3(Cc3ccc(C#N)cc3)C2)cc1 (racemic)	
216 nM	COc1ccc(S(=O)(=O)N2CCC3=CC(=O)CCC3(Cc3ccccc3)C2)cc1 (racemic)	
0.6 nM	CC#C[C@@]1(O)CC[C@@]2(Cc3ccccc3)c3ccc(O)cc3CC[C@@H]2C1	Ki (Glucocorticoid receptor [2]): 4 nM; Ki (Glucocorticoid receptor [3]): 5.5 nM
15 nM	CN(C)c1ccc(CC23CCC(=O)C=C2CCN(S(=O)(=O)c2ccc(C(C)(C)C)cc2)C3)cc1 (racemic)	Ki (Glucocorticoid receptor [2]): > 1000 nM
137 nM	CS(=O)(=O)c1ccc(S(=O)(=O)N2CCC3=CC(=O)CCC3(Cc3ccccc3)C2)cc1 (racemic)	
13 nM	CC(C)(C)c1ccc(S(=O)(=O)N2CCC3=CC(=O)CCC3(Cc3ccc(NS(C)(=O)=O)cc3)C2)cc1 (racemic)	Ki (Glucocorticoid receptor [2]): > 1000 nM
750 nM	CC(=O)Nc1ccc(S(=O)(=O)N2CCC3=CC(=O)CCC3(Cc3ccccc3)C2)cc1 (racemic)	
56 nM	CC(=O)Nc1ccc(CC23CCC(=O)C=C2CCN(S(=O)(=O)c2ccc(C(C)(C)C)cc2)C3)cc1 (racemic)	Ki (Glucocorticoid receptor [2]): > 1000 nM
> 10000 nM	COc1cccc(OC)c1S(=O)(=O)N1CCC2=CC(=O)CCC2(Cc2ccccc2)C1 (racemic)	
> 10000 nM	O=C1C=C2CCN(C(=O)c3ccccc3)CC2(Cc2ccccc2)CC1 (racemic)	
4450 nM	O=C1C=C2CCN(S(=O)(=O)c3ccccc3C(F)(F)F)CC2(Cc2ccccc2)CC1 (racemic)	

Ki (Glucocorticoid receptor [1])	SMILES	other results
800 nM	O=C1C=C2CCN(S(=O)(=O)c3ccc(F)cc3)CC2(Cc2ccccc2)CC1 (racemic)	
163 nM	O=C1C=C2CCN(S(=O)(=O)c3ccc(Oc4ccccc4)cc3)CC2(Cc2ccccc2)CC1 (racemic)	
13 nM	CN(C)S(=O)(=O)Nc1ccc(CC23CCC(=O)C=C2CCN(S(=O)(=O)c2ccc(C(C)(C)C)cc2)C3)cc1 (racemic)	Ki (Glucocorticoid receptor [2]): 323 nM
> 10000 nM	CCCCS(=O)(=O)N1CCC2=CC(=O)CCC2(Cc2ccccc2)C1 (racemic)	
> 10000 nM	CC(C)(C)c1ccc(S(=O)(=O)N2CCC3=CC(=O)CC[C@@]3(Cc3ccccc3)C2)cc1	
9 nM	CC(C)(C)c1ccc(S(=O)(=O)N2CCC3=CC(=O)CCC3(Cc3ccc(N4CCCCC4)cc3)C2)cc1 (racemic)	Ki (Glucocorticoid receptor [2]): > 1000 nM
432 nM	O=C1C=C2CCN(S(=O)(=O)c3cccc(Cl)c3)CC2(Cc2ccccc2)CC1 (racemic)	
9 nM	CC(C)(C)c1ccc(S(=O)(=O)N2CCC3=CC(=O)CCC3(Cc3ccc(Br)cc3)C2)cc1 (centres undefined)	Ki (Glucocorticoid receptor [2]): 200 nM
2100 nM	CS(=O)(=O)Nc1cccc(S(=O)(=O)N2CCC3=CC(=O)CCC3(Cc3ccccc3)C2)c1 (centres undefined)	
99 nM	CC(C)(C)c1ccc(S(=O)(=O)N2CCC3=CC(=O)CCC3(Cc3ccc(N)cc3)C2)cc1 (racemic)	
> 10000 nM	O=C1C=C2CCN(Cc3ccncc3)CC2(Cc2ccccc2)CC1 (racemic)	
950 nM	CS(=O)(=O)Nc1ccc(S(=O)(=O)N2CCC3=CC(=O)CCC3(Cc3ccccc3)C2)cc1 (racemic)	
2250 nM	COc1ccc(CN2CCC3=CC(=O)CCC3(Cc3ccccc3)C2)cc1 (racemic)	
225 nM	O=C1C=C2CCN(S(=O)(=O)c3ccccc3)CC2(Cc2ccccc2)CC1 (racemic)	
113 nM	CN(C)c1ccc(S(=O)(=O)N2CCC3=CC(=O)CCC3(Cc3ccccc3)C2)cc1 (racemic)	
1000 nM	N#Cc1ccccc1S(=O)(=O)N1CCC2=CC(=O)CCC2(Cc2ccccc2)C1 (racemic)	
14 nM	CC(C)(C)c1ccc(S(=O)(=O)N2CCC3=CC(=O)CCC3(Cc3ccccc3)C2)cc1 (racemic)	Ki (Glucocorticoid receptor [2]): > 1000 nM
6 nM	COc1ccc(CC23CCC(=O)C=C2CCN(S(=O)(=O)c2ccc(C(C)(C)C)cc2)C3)cc1 (racemic)	Ki (Glucocorticoid receptor [2]): 230 nM
99 nM	Cc1ccc(S(=O)(=O)N2CCC3=CC(=O)CCC3(Cc3ccccc3)C2)cc1 (racemic)	
3700 nM	O=C1C=C2CCN(Cc3ccccc3)CC2(Cc2ccccc2)CC1 (racemic)	
4 nM	CC(C)(C)c1ccc(S(=O)(=O)N2CCC3=CC(=O)CC[C@]3(Cc3ccccc3)C2)cc1	Ki (Glucocorticoid receptor [2]): 200 nM
> 10000 nM	O=C1C=C2CCN(C(=O)Nc3ccccc3)CC2(Cc2ccccc2)CC1 (racemic)	
5 nM	CC(C)(C)c1ccc(S(=O)(=O)N2CCC3=CC(=O)CCC3(Cc3ccc(F)cc3)C2)cc1 (racemic)	Ki (Glucocorticoid receptor [2]): > 1000 nM

SMILES	Ki (Glucocorticoid receptor [1])	other results
O=C1C=C2CCN(S(=O)(=O)c3ccc(N4CCOCC4)cc3)CC2(Cc2ccccc2)CC1 (centres undefined)	64 nM	
CC(C)(C)c1ccc(S(=O)(=O)N2CCC3=CC(=O)CCC3(Cc3ccc(N4CCOCC4)cc3)C2)cc1 (centres undefined)	10 nM	Ki (Glucocorticoid receptor [2]): 400 nM
O=C1C=C2CCN(S(=O)(=O)c3ccc(-c4ccccc4)cc3)CC2(Cc2ccccc2)CC1 (centres undefined)	55 nM	
CC(C)(C)c1ccc(S(=O)(=O)N2CCC3=CC(=O)CCC3(Cc3ccc(-c4ccncc4)cc3)C2)cc1 (racemic)	2 nM	inhibition at 1 µM (CYP2C9): 76%; inhibition at 1 µM (CYP2D6): 44%; Ki (Glucocorticoid receptor [2]): 180 nM; inhibition at 1 µM (CYP2C19): 61%
